Measured values: PMC6934184, “Selective DNA-PKcs inhibition extends the therapeutic index of localized radiotherapy and chemotherapy” (The Journal of Clinical Investigation, 2019)

Biological target: T1, NUAK2 (Homo sapiens, UniProt Q9H093)
T1 construct: purchased Thermo Fisher Scientific (Life Technologies) SelectScreen
Experiment: SelectScreen LanthaScreen
Type: binding
Conditions: 1 µM
Description: The in vitro kinase selectivity of NU5455 was determined using the SelectScreen Broad Assay Panel (Thermo Fisher Scientific) involving activity and binding assays (Supplemental Table 1). […] Class IA PI3Ks were measured using the p85α subunit.
Kinase [ATP] % Assay Kinase [ATP] % Assay Kinase [ATP] % Assay Kinase [ATP] % Assay […]
NEK2 Km app 17.8 Z CSNK1G3 (CK1 gamma 3) Km app 4.2 Z NUAK2 n/a 1.0 L KIT T670E n/a -2.8 L […]
SGK (SGK1) Km app 8.5 Z MAP4K2 (GCK) Km app 2.7 Z TLK2 n/a -0.3 L STK38 (NDR) n/a -5.9 L
MERTK (cMER) Km app 8.3 Z CDK2/cyclin A Km app 2.7 Z TGFBR1 (ALK5) n/a -0.4 L MATK (HYL) Km app -6.3 Z
FYN Km app 8.3 Z EPHA1 Km app 2.7 Z CLK3 Km app -0.5 Z ABL1 E255K Km app -6.6 Z
TEC n/a 8.1 L CDK2/cyclin E1 n/a 2.7 L MAP3K14 (NIK) n/a -0.5 L STK17A (DRAK1) n/a -6.6 L
KIT V654A n/a 8.1 L TESK2 n/a 2.7 L AKT3 (PKB gamma) Km app -0.5 Z JAK2 JH1 JH2 Km app -6.7 Z
ROS1 Km app 8.0 Z SPHK1 Km app 2.7 A MAP3K9 (MLK1) Km app -0.5 Z PRKACB (PRKAC beta) n/a -6.8 L
FGFR3 K650E Km app 7.9 Z AMPK A2/B1/G1 Km app 2.6 Z IKBKB (IKK beta) Km app -0.6 Z PDGFRA (PDGFR alpha) Km app -6.8 Z
RAF1 (cRAF) Y340D Y341D 100 7.9 Z DYRK3 Km app 2.6 Z CAMK2A (CaMKII alpha) Km app -0.6 Z NEK9 Km app -7.2 Z
PI4KA (PI4K alpha) 10 7.8 A CSNK1D (CK1 delta) Km app 2.6 Z PRKCB1 (PKC beta I) Km app -0.7 Z PDK1 Km app -7.3 Z
HIPK2 Km app 7.8 Z ACVR2A n/a 2.5 L TTK n/a -0.7 L RPS6KB1 (p70S6K) Km app -7.8 Z […]

T1 sequence (Q9H093 whole entry): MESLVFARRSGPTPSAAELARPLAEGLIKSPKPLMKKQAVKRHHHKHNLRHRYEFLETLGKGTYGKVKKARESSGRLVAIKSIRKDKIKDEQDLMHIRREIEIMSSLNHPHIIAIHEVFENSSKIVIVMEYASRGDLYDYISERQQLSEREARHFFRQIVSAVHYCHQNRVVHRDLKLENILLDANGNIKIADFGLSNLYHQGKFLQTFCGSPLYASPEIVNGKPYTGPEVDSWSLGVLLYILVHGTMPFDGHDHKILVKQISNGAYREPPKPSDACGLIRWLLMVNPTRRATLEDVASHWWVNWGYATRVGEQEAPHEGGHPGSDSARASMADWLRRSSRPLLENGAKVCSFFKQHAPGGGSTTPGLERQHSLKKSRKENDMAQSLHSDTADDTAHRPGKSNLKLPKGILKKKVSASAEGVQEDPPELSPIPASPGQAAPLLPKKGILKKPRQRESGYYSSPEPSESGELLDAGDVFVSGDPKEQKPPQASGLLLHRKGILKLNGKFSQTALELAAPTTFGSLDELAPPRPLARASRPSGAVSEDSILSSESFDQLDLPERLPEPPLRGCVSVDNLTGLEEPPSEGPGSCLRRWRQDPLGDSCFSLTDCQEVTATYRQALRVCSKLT

Compound: CN(C(=O)CN1CCOCC1)c1ccc2sc3c(-c4cccc5c(=O)cc(N6CC7CCC(C6)O7)oc45)cccc3c2c1 [NU5455]
- % displacement: 1.0%
